Biological target: DNA-(apurinic or apyrimidinic site) endonuclease (Homo sapiens, UniProt P27695)
Assay: High-Throughput Screening and IC50 Determinations
Conditions: pH 7.5; 22 °C
Description: The screening assay was performed using 384-well microtiter plate first spotted with test compounds. Then Ape1 in reaction buffer was added to each well. The reaction was initiated through the addition of substrate. After incubation, the final fluorescence was measured using a FLUOstar Optima plate reader (BMG Labtech GmbH, Offenburg, Germany) at excitation and emission wavelengths of 485 and 520 nm, respectively. IC50 analyses were carried out on the best hits by first plating 10-fold dilutions of each inhibitor onto 384-well plates. Using the initial rate values, percentage activity was calculated for each sample relative to a negative (DMSO only) control. The data were fitted to a sigmoidal dose-response model using Prism software (GraphPad Software, San Diego, CA).

Chain of DNA-(apurinic or apyrimidinic site) endonuclease (P27695 whole entry): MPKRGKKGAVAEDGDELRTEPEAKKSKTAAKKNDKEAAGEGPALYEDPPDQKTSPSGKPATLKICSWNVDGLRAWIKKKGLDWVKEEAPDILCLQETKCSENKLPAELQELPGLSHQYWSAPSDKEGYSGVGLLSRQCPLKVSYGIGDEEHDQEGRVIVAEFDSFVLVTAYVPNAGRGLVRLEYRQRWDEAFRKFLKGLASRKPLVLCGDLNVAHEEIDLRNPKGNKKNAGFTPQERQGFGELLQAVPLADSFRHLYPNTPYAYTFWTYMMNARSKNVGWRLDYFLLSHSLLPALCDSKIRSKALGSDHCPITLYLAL

Row | Structure (SMILES) | IC50 [nM] | Ki [nM]
1 | O=C(O)c1cc[c]([Sb](=[O])([OH])[OH])cc1[N+](=O)[O-] [4-[dihydroxy(oxo)--stibanyl]-2-nitrobenzoic acid] | 4 | 19
2 | O=C(Nc1cc[c]([Sb](=[O])([OH])[OH])cc1)c1ccccc1 [N-{4-[dihydroxy(oxo)--stibanyl]phenyl}benzamide] | 300 | –
3 | CCOC(=O)CCCc1cc[c]([Sb](=[O])([OH])[OH])cc1 [ethyl 4-{4-[dihydroxy(oxo)--stibanyl]phenyl}butanoate] | 17 | 36
4 | O=C(O)/C=C/c1ccc[c]([Sb](=[O])([OH])[OH])c1 [(2E)-3-{3-[dihydroxy(oxo)--stibanyl]phenyl}prop-2-enoic acid] | 200 | –

From BindingDB's records for doi:10.1124/mol.107.042622 (The Johns Hopkins University, 2008)
